From patent EP0536208B1, “1,2-DIHYDRO-3H-DIBENZISOQUINOLINE-1,3-DIONE ANTICANCER AGENTS” (RESEARCH CORPORATION TECHNOLOGIES, INC., priority 1990, dated 1992)
Converted amounts (≈) assume the structure as drawn. Where two headings read alike, the source gives them in different places.

Tests used:
Format in all cases: cell-based
[1] = system: 2780 Human Ovarian Cancer; test: In vitro tumor cell viability assay using MTT dye; settings: MTT dye reduction
Protocol: (§1) Compounds of the present invention were tested for their in vitro activity in tumor cells sensitive and resistant to standard anti-cancer agents. The tumor cell lines used in this protocol are 8226 human Myeloma^1; 8226/Dox-40^2, L-1210/Murine Leukemia, multidrug resistant L-210/^3, 2780 Human Ovarian Cancer and 2780/AD^4. Each of these resistant cell lines is known as a multidrug resistant or "MDR" cell line. These cell lines produce a 170,00 molecular weight membrane protein termed the P-glycoprotein which acts as an active drug efflux pump. Thus, once a cell produces the P-glycoprotein, it has the capability of pumping out of the cell a large variety of unrelated natural products. […] The protocol for measuring the effectiveness of compounds of the present invention is as follows: 2) In Vitro Tumor Cell Viability Assays Using MTT-Dye: Tumors are processed into a single cell suspension as described above. The cells are plated at a concentration of 3-5 X 10^4/1 mL well into plastic 96-well plates. […] Afterwards the medium containing the drug is removed, the cells are "washed" by centrifugation in fresh medium or phosphate-buffered saline (pH 7.4). A tetrazolium dye is then added (3,4,5-dimethylthiazol-2-yl)-2,5-diphenyl tetrazolium bromide (MTT). This dye forms a colored formazan product upon activation by mitochondrial reductases in viable cells. Typically, the formazan product is solubilized in acid-propanol or DMSO. The intensity of the color is proportional to viable cell numbers and this is quantitated by spectrophotometric absorbance ([…]) on a micro ELISA plate reader. Test results are calibrated in % control absorbance from untreated tumor cells (Mossman T: J Immunol Meth 65:55-63, 1983). Using the above procedure, Compound 1 was tested for its cytotoxic activity with respect to various tumor cell lines.

8226 Human Myeloma = test: In vitro tumor cell viability assay using MTT dye
Protocol: as §1

L-1210/Murine Leukemia = test: In vitro tumor cell viability assay using MTT dye; settings: Mus musculus
Protocol: as §1

205p14 = test: Activity against human colon tumor cells (MTT assay, 3 day drug exposure); settings: cells plated 24 hr. prior to drug addition, read-out: Concentration for 50% inhibition of colony formation for human colon tumors
Protocol: (§2) For example, the compounds of the present invention were evaluated for cytotoxic activities in cloned human colon carcinomas. The clonogenic assays were conducted in accordance with the procedure described hereinbelow: 1) Colony Forming Assays in Soft Agar: Fresh human or murine tumors are disaggregated into single cell suspensions using mechanical, hypoosmotic and/or enzymatic (trypsin) methods. The single cells (about 5 X 10^4-10^5) are plated in 35 mm plastic petri dishes onto a 1 ml "feeder layer" of 0.3% agar dissolved in growth medium containing 5-10% vol/vol of heat-inactivated fetal bovine serum, molten 0.3% agar and the antibiotics penicillin (100 u/mL) and streptomycin (100 ug/mL). Drug exposures can be performed for one hour or continuously (drugs added to final plating medium). Tumor cell colonies > 60 uM in size are counted by automated image analysis after 10-20 days of incubation in a humidified, 5-10% CO2-gassed environment maintained at 37°C. Inhibition of colony formation is calculated based on comparisons to control (untreated) plates wherein the growth of hundreds of colonies/plate is typical. (Salmon SE, et al., N Engl J Med 298(24):1321-1327, 1978).
(§3) Compounds of the present invention were tested for their in vitro activity in tumor cells sensitive and resistant to standard anti-cancer agents. The tumor cell lines used in this protocol are 8226 human Myeloma^1; 8226/Dox-40^2, L-1210/Murine Leukemia, multidrug resistant L-210/^3, 2780 Human Ovarian Cancer and 2780/AD^4. Each of these resistant cell lines is known as a multidrug resistant or "MDR" cell line. These cell lines produce a 170,00 molecular weight membrane protein termed the P-glycoprotein which acts as an active drug efflux pump. Thus, once a cell produces the P-glycoprotein, it has the capability of pumping out of the cell a large variety of unrelated natural products. […] The protocol for measuring the effectiveness of compounds of the present invention is as follows: 2) In Vitro Tumor Cell Viability Assays Using MTT-Dye: Tumors are processed into a single cell suspension as described above. The cells are plated at a concentration of 3-5 X 10^4/1 mL well into plastic 96-well plates. Growth medium containing 5-10% (vol/vol) heat-inactivated fetal bovine serum and penicillin/streptomycin (as above) is added prior to incubation at 37°C for six days. Afterwards the medium containing the drug is removed, the cells are "washed" by centrifugation in fresh medium or phosphate-buffered saline (pH 7.4). A tetrazolium dye is then added (3,4,5-dimethylthiazol-2-yl)-2,5-diphenyl tetrazolium bromide (MTT). This dye forms a colored formazan product upon activation by mitochondrial reductases in viable cells. Typically, the formazan product is solubilized in acid-propanol or DMSO. The intensity of the color is proportional to viable cell numbers and this is quantitated by spectrophotometric absorbance ([…]) on a micro ELISA plate reader. Test results are calibrated in % control absorbance from untreated tumor cells (Mossman T: J Immunol Meth 65:55-63, 1983). Using the above procedure, Compound 1 was tested for its cytotoxic activity with respect to various tumor cell lines.

LOVOp32 = test: as above; settings: cells plated 24 hr. prior to drug addition, read-out: Concentration for 50% inhibition of colony formation for human colon tumors
Protocol: as §2, §3

For CN(C)CCN1C(=O)c2cccc3cc4ccccc4c(c23)C1=O [Compound 1, 2-[2'-(dimethylamino)ethyl]-1,2-dihydro-3H-dibenz(deh)isoquinoline-1,3-dione], the IC50 [1] was 4000 ng/mL (≈ 12.6 µM), the IC50 (8226 Human Myeloma; 96 h, 8226 Human Myeloma, 4-day drug exposure, MTT dye reduction, read-out: Activity (IC50)) was 11 ng/mL (≈ 0.0346 µM) and the IC50 (8226 Human Myeloma; Homo sapiens, 8226 Myeloma Cells Sensitive, continuous exposure, MTT dye assay, read-out: IC50 VALUES) was 10 ng/mL (≈ 0.0314 µM). The IC50 (L-1210/Murine Leukemia; 144 h, Sensitive L1210, six day MTT assay, continuous drug exposure, read-out: Concentration for 50% inhibition of tumor cells) was 2.5 ng/mL (≈ 0.00785 µM), the IC50 (L-1210/Murine Leukemia; L1210, 96 h, L-1210/Murine Leukemia, 4-day drug exposure, MTT dye reduction, read-out: Activity (IC50)) was 3 ng/mL (≈ 0.00942 µM) and the IC50 (L-1210/Murine Leukemia; L1210 Leukemia Cells Sensitive, continuous exposure, MTT dye assay, read-out: IC50 VALUES) was 2.8 ng/mL (≈ 0.00879 µM). It also gave an IC50 (205p14) of 400 nM and an IC50 (LOVOp32) of 300 nM.
